Data as given in US5925528A, “Murine cell lines which over produce acidic fibroblast growth factor (aFGF) and method of using same” (Ohio State University Research Foundation, priority 1997, dated 1999).
“Also recorded” adds a separate entry of the source.

Legend:
[1] = tested on: sense transfectants (Tr31-5-1, Tr33-1-2, Tr34-4-1 and Tr34-1-1); experiment: Mitogenic response ([3H]thymidine) of sense transfectants compared with parental NIH/3T3 cells; format: cell-based, mouse
Method: (§1) FIG. 12 is a graph showing the mitogenic effects of different growth factors to various transfected cell lines. Cells were grown to confluence, changed to Dulbecco's modified Eagle medium containing 0.5% calf serum and grown for two more days. Different growth factors or calf serum was then added to the medium to stimulate cells to grow. [^3 H]thymidine was added 18 hours after addition of the mitogens and cells were incubated for another 6 hours. Bovine aFGF (b-aFGF) represents the truncated forms while human aFGF purified from Tr31-5-1 (rh-aFGF) represents the full-length protein. Cell lines, Tr31-5-1, 33-1-2, 34-1-1, and 34-4-1 are NIH/3T3 derivatives containing the aFGF cDNA construct in the positive orientation; whereas Tr31-11-1 contains aFGF cDNA in the anti-sense orientation.
(§2) Cells transfected with the EDNA coding for the full-length human aFGF were compared with the parental NIH/3T3 cells by determining their responses to various mitogens. […] Therefore, the lack of mitogenic response of Tr31-5-1 and Tr33-1-2 to rh-aFGF is not likely due to the trivial explanation of a defective mitogen. Thus, Tr31-5-1 and Tr33-1-2 may have lost some component of the pathway and these cell lines provide a unique means for elucidating the components responsive to the full-length aFGF.

newt KGFR [2] = experiment: Binding assay (Scatchard plot) using KPTr2-2 cells and 125I-aFGF; design: species or system newt (Notophthalamus viridescens); conditions: KPTr2-2 cells, read-out: Kd of newt KGFR toward human aFGF
Text: (§3) Binding assays using KPTr2-2 and ^125 I-aFGF have been carried out. […] The Kd is slightly higher than the typical sub-nM range of mammalian KGFR. However, this may reflect the species difference since we used a human ligand for the newt receptor.

Tr31-5-1 cells = experiment: Mitogenic response ([3H]thymidine) of Tr31-5-1 cells; format: cell-based, mouse; conditions: listed as full-length aFGF
Method: as §1, §2

Tr33-1-2 cells = experiment: Mitogenic response ([3H]thymidine) of Tr33-1-2 cells; format: cell-based, mouse; conditions: listed as full-length aFGF
Method: as §1, §2

NIH/3T3 cells = experiment: Mitogenic response ([3H]thymidine) of NIH/3T3 cells; format: cell-based, mouse
Method: as §1, §2

Swiss/3T3 cells = experiment: Mitogenic response ([3H]thymidine) of Swiss/3T3 cells; format: cell-based
newt KGFR [3] = experiment: Competition assay using KPTr2-2 and 125I-aFGF; format: binding, newt (Notophthalamus viridescens); conditions: KPTr2-2 cells, compared with aFGF
Text: as §3

newt KGFR [4] = experiment: Crosslinking of 125I-aFGF to CHO-K1 cells over-expressing newt KGFR (KPTr2-2), competition with excess cold ligand; format: binding, newt (Notophthalamus viridescens); conditions: 500-fold molar excess of cold ligand, KPTr2-2 cells
Method: CHO cells transfected with pBJ5 vector (lane 1) or with newt KGFR expression vector (lanes 2-4) were crosslinked with ^125 I-aFGF using 0.3 mM disuccinimidyl suberate (DSS). Excess amounts (500-fold) of aFGF (lane 3) or KGF (lane 4) were used to compete with ^125 I-aFGF. Crosslinked products were analyzed on a 7.5% SDS-polyacrylamide gel.
To characterize the newt FGFR EDNA functionally, the newt KGFR were expressed in CHO-K1 cells. The mammalian expression vector, pBJ5, which contains a chimeric promoter derived from HTLV-I and SV40, was used to express the newt KGFR and FGFR2 cDNA. […] The crosslinked product is absent in KPTr1-8, the CHO cells that were transfected with the pBJ5 vector alone. The crosslinked product thus appears to be specific. Similarly, a cell line over-expressing the human KGFR (T-1063-29-2 from S. A. Aaronson, NIH) was able to produce a somewhat smaller crosslinked product than the newt KGFR. Antibodies (both monoclonal and polyclonal) directed against a peptide from the carboxyl terminus of the newt FGFR2 are generated.

In the case of PDGF [reference compound], the “mitogenic response relative to parental NIH/3T3 cells” value ([1]; sense transfectants Tr31-5-1, Tr33-1-2, Tr34-4-1 and Tr34-1-1) is reported as “stronger mitogenic responses than NIH/3T3 cells”.

With “human aFGF: human aFGF purified from Tr31-5-1 (rh-aFGF) represents the full-length protein” the Kd (newt KGFR [2]) was 1.3 nM, the mitogenic response (Tr31-5-1 cells) was “failed to give any mitogenic responses; also recorded: do not respond” and the mitogenic response (Tr33-1-2 cells) was “failed to give any mitogenic responses; also recorded: do not respond”. The mitogenic response (NIH/3T3 cells) was “responded to the mitogenic stimulation”, the mitogenic response (Swiss/3T3 cells) was “responded to the mitogenic stimulation” and the “mitogenic response relative to parental NIH/3T3 cells” value ([1]; sense transfectants with the exception of Tr33-1-2) was “respond less strongly than the parental NIH/3T3 cells”.

“human recombinant bFGF: human recombinant basic fibroblast growth factor” was tested, and the “competition with 125I-aFGF” value (newt KGFR [3]) was “does not compete as well as aFGF”.

B1: human recombinant KGF: human recombinant keratinocyte growth factor (protein, UniProt P21781 32-194, looked up)
Fibroblast growth factor 7: CNDMTPEQMATNVNCSSPERHTRSYDYMEGGDIRVRRLFCRTQWYLRIDKRGKVKGTQEMKNNYNIMEIRTVAVGIVAIKGVESEFYLAMNKEGKLYAKKECNEDCNFKELILENHYNTYASAKWTHNGGEMFVALNQKGIPVRGKKTKKEQKTAHFLPMAIT
In the case of B1, the “competition of the 150 kDa crosslinked product” value (newt KGFR [4]) is reported as “successfully competed off”.
